Values quoted from earlier work as cited in PMC5960647 (Experimental & Molecular Medicine, 2018).
Where no end group is shown, it is not given here.

Experiments:
CCKBR [1] = settings: cited from earlier work
CCKBR [2] = settings: dorsal root ganglion neurons, CCKBR in the same neuron; cited from earlier work

Row | Compound | effect on opioid-induced analgesia (CCKBR [1]) | effect on pain threshold of administration per se (CCKBR [1]) | effect on electroacupuncture analgesia (CCKBR [1]; caudate nucleus, through CCKBR) | effect on opioid analgesia (CCKBR [1]; shown with L-365,260) | effect on MOR-mediated inhibition of voltage-gated calcium current (CCKBR [2])
1 | Cc1cccc(NC(=O)N[C@@H]2N=C(c3ccccc3)c3ccccc3N(C)C2=O)c1 [L-365,260] | potentiated opioid-induced analgesia | did not affect pain threshold |  |  | 
2 | cholecystokinin octapeptide (DYMGWMDF; ends and bridges not checked; UniProt P06307 96-103, looked up) [CCK-8] |  |  | antagonism to electroacupuncture analgesia | inhibited opioid analgesia through CCKBR | antagonized
